Source: patent publication US20220062240A1, “METHODS OF TREATING CANCER USING A CLK INHIBITOR” (BioSplice Therapeutics, Inc., priority 2018, published 2022)
Where two headings read alike, the source gives them in different places. Values belong to the compound of their own block, whether it stands above or below them.

How the values were obtained:
CLK2 = biological target: T1, CLK2 (Homo sapiens, UniProt P49760); experiment: CLK2 kinase activity assay (Z-lyte, Ser/Thr 6 peptide); assay type: biochemical; conditions: recombinant CLK2 kinase, ATP 60 μM; read-out: EC50
T1 construct: purchased Thermo Fisher (Life Technologies), Z'-LYTE Kinase Assay Kits
T1 sequence (P49760 whole entry): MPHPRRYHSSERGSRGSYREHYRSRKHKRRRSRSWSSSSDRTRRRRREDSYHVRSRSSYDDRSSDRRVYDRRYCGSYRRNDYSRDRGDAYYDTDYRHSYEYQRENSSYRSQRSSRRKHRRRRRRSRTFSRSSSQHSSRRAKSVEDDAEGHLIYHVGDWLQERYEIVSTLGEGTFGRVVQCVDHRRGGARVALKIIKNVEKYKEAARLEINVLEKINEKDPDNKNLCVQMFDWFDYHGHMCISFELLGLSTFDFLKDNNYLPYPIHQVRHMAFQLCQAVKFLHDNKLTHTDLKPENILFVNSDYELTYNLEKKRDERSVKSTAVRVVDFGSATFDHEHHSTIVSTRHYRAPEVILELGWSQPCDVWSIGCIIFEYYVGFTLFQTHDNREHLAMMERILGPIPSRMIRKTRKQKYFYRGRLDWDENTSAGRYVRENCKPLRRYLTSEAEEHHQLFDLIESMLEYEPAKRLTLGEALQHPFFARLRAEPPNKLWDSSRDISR
Experimental: All reactions were performed in duplicate.

[1] = test system: haematopoietic & lymphoid tumors (13 cell lines); experiment: CellTiter-Glo Viability Assay, haematopoietic & lymphoid tumors; assay type: cell-based; conditions: Homo sapiens, inhibition of cancer cell proliferation
[2] = test system: colorectal cancer (6 cell lines); experiment: CellTiter-Glo Viability Assay, colorectal cancer; assay type: cell-based; conditions: Homo sapiens, inhibition of cancer cell proliferation
[3] = test system: ovarian cancer (4 cell lines); experiment: CellTiter-Glo Viability Assay, ovarian cancer; assay type: cell-based; conditions: Homo sapiens, inhibition of cancer cell proliferation
MDA-MB-231-Luc = experiment: CellTiter-Glo Viability Assay, breast cancer; assay type: cell-based; conditions: Homo sapiens, 96 h; MDA-MB-231-Luc, breast cancer, four days; read-out: EC50
ZR-75-1 = experiment: CellTiter-Glo Viability Assay, breast cancer; assay type: cell-based; conditions: Homo sapiens, 96 h; ZR-75-1, breast cancer, four days; read-out: EC50
MCF7 = experiment: CellTiter-Glo Viability Assay, breast cancer; assay type: cell-based; conditions: Homo sapiens, 96 h; MCF7, breast cancer, four days; read-out: EC50
BT-549 = experiment: CellTiter-Glo Viability Assay, breast cancer; assay type: cell-based; conditions: Homo sapiens, 96 h; BT-549, breast cancer, four days; read-out: EC50
HCC1599 = experiment: CellTiter-Glo Viability Assay, breast cancer; assay type: cell-based; conditions: Homo sapiens, 96 h; HCC1599, breast cancer, four days; read-out: EC50
DU4475 = experiment: CellTiter-Glo Viability Assay, breast cancer; assay type: cell-based; conditions: Homo sapiens, DU-4475, 96 h; DU4475, breast cancer, four days; read-out: EC50
CAMA1 = experiment: CellTiter-Glo Viability Assay, breast cancer; assay type: cell-based; conditions: Homo sapiens, CAMA-1, 96 h; CAMA1, breast cancer, four days; read-out: EC50
T47D = experiment: CellTiter-Glo Viability Assay, breast cancer; assay type: cell-based; conditions: Homo sapiens, 96 h, breast cancer, four days, read-out: EC50
[4] = test system: prostate cancer (5 cell lines); experiment: CellTiter-Glo Viability Assay, prostate cancer; assay type: cell-based; conditions: Homo sapiens
[5] = test system: liver cancer (3 cell lines); experiment: CellTiter-Glo Viability Assay, liver cancer; assay type: cell-based; conditions: Homo sapiens, inhibition of cancer cell proliferation
[6] = test system: lung cancer (4 cell lines); experiment: CellTiter-Glo Viability Assay, lung cancer; assay type: cell-based; conditions: Homo sapiens, inhibition of cancer cell proliferation
all 50 cell lines = experiment: CellTiter-Glo Viability Assay, average across all cell lines; assay type: cell-based; conditions: Homo sapiens; across all 50 cell lines; read-out: average EC50 for inhibition of cancer cell proliferation
Summary of the method: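 Luminescent ATP read-out (CellTiter-Glo) after a 4-day compound exposure at 37° C served as the viability measure. Cells were seeded at 300-3,000/well, compound wells run in duplicate against DMSO controls, and EC50 values came from fitted dose-response curves.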

CLK3 = CLK3 (Homo sapiens, UniProt P49761); experiment: CLK3 kinase activity assay (Z-lyte, Ser/Thr 18 peptide)
Chain of CLK3 (P49761 whole entry): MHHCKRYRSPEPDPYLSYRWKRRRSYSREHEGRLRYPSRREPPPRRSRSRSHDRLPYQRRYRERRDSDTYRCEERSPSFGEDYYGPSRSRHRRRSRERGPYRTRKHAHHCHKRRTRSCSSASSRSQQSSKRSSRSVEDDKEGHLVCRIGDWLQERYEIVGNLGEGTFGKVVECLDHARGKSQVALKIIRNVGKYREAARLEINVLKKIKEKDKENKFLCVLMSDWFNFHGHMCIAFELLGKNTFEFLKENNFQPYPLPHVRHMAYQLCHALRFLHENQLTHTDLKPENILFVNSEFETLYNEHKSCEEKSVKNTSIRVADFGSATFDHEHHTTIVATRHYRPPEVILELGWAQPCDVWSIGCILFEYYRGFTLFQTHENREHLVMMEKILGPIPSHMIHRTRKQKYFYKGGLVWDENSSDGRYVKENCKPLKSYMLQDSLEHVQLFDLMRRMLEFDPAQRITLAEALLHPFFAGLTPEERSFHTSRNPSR

[7] = test system: pancreatic cancer (8 cell lines); experiment: CellTiter-Glo Viability Assay, pancreatic cancer; assay type: cell-based; conditions: Homo sapiens, inhibition of cancer cell proliferation
[8] = DND41, DND-41 cell line, read-out: Haematopoietic & Lymphoid tumors, EC50 (μM) DND-41
[9] = MV4-11, MV-4-11 cell line, read-out: Haematopoietic & Lymphoid tumors, EC50 (μM) MV-4-11
[10] = Rec1, REC-1 cell line, read-out: Haematopoietic & Lymphoid tumors, EC50 (μM) REC-1
[11] = SU-DHL-4, SUDHL4 cell line, read-out: Haematopoietic & Lymphoid tumors, EC50 (μM) SUDHL4
[12] = HL-60 cell line, read-out: Haematopoietic & Lymphoid tumors, EC50 (μM) HL-60
[13] = JM1 cell line, read-out: Haematopoietic & Lymphoid tumors, EC50 (μM) JM1
[14] = JURKAT, Clone E6-1 cell line, read-out: Haematopoietic & Lymphoid tumors, EC50 (μM) JURKAT, Clone E6-1
[15] = JeKo-1 cell line, read-out: Haematopoietic & Lymphoid tumors, EC50 (μM) JeKo-1
[16] = KASUMI-1 cell line, read-out: Haematopoietic & Lymphoid tumors, EC50 (μM) KASUMI-1
[17] = Loucy cell line, read-out: Haematopoietic & Lymphoid tumors, EC50 (μM) Loucy
[18] = MOLT-4 cell line, read-out: Haematopoietic & Lymphoid tumors, EC50 (μM) MOLT-4
[19] = TF-1 cell line, read-out: Haematopoietic & Lymphoid tumors, EC50 (μM) TF-1
[20] = TOLEDO cell line, read-out: Haematopoietic & Lymphoid tumors, EC50 (μM) TOLEDO
[21] = SW480 cell line, read-out: Colorectal cancer, EC50 (μM) SW480
[22] = PA-1, PA1 cell line, read-out: Ovarian cancer, EC50 (μM) PA1
[23] = TOV112D, TOV-112D cell line, read-out: Ovarian cancer, EC50 (μM) TOV-112D
[24] = OV-90 cell line, read-out: Ovarian cancer, EC50 (μM) OV-90
[25] = OVCAR-3 cell line, read-out: Ovarian cancer, EC50 (μM) OVCAR-3
[26] = DU-145, read-out: Prostate cancer EC50 Du-145
[27] = PC-3, PC3 cell line, inhibition of cancer cell proliferation, read-out: Prostate cancer EC50 PC3
[28] = 22Rv1 cell line, inhibition of cancer cell proliferation, read-out: Prostate cancer EC50 22Rv1
[29] = LNCap clone FGC cell line, inhibition of cancer cell proliferation, read-out: Prostate cancer EC50 LNCap clone FGC
[30] = VCaP (Sigma) cell line, inhibition of cancer cell proliferation, read-out: Prostate cancer EC50 VCaP (Sigma)
[31] = SNU-398, SNU398 cell line, read-out: Liver cancer, EC50 SNU398
[32] = HEPG2 cell line, read-out: Liver cancer, EC50 HEPG2
[33] = PLC/PRF/5 cell line, read-out: Liver cancer, EC50 PLC/PRF/5
[34] = A-427, A427 cell line, read-out: Lung cancer, EC50 (μM) A427
[35] = HCC78, HCC-78 cell line, read-out: Lung cancer, EC50 (μM) HCC-78
[36] = NCI-H460 cell line, read-out: Lung cancer, EC50 (μM) NCI-H460
[37] = NCI-H522 cell line, read-out: Lung cancer, EC50 (μM) NCI-H522
[38] = BXPC-3, BxPC3 cell line, read-out: Pancreatic cancer, EC50 BxPC3
[39] = CAPAN-1, Capan1 cell line, read-out: Pancreatic cancer, EC50 Capan1
[40] = Capan-2, Capan2 cell line, read-out: Pancreatic cancer, EC50 Capan2
[41] = MIA PaCa-2 cell line, read-out: Pancreatic cancer, EC50 MIA PaCa-2
[42] = PANC 05.04 cell line, read-out: Pancreatic cancer, EC50 PANC 05.04
[43] = PANC-1 cell line, read-out: Pancreatic cancer, EC50 PANC-1
[44] = UPAFII cell line, read-out: Pancreatic cancer, EC50 UPAFII

- EC50 (CLK2): 4.5 nM
- EC50 [1, 8]: 1 µM
- EC50 [1, 9]: 0.204 µM
- EC50 [1, 10]: 0.192 µM
- EC50 [1, 11]: 0.527 µM
- EC50 [1, 12]: 1.28 µM
- EC50 [1, 13]: 0.158 µM
- EC50 [1, 14]: 1.19 µM
- EC50 [1, 15]: 0.32 µM
- EC50 [1, 16]: 0.517 µM
- EC50 [1, 17]: 0.614 µM
- EC50 [1, 18]: 1.45 µM
- EC50 [1, 19]: 2.67 µM
- EC50 [1, 20]: 0.274 µM
- EC50 ([2]; HCT-116, HCT116 cell line, read-out: Colorectal cancer, EC50 (μM) HCT116): 0.497 µM
- EC50 ([2]; HT-29, HT29 cell line, read-out: Colorectal cancer, EC50 (μM) HT29): 0.574 µM
- EC50 ([2]; SW-620, SW620 cell line, read-out: Colorectal cancer, EC50 (μM) SW620): 0.465 µM
- EC50 ([2]; DLD-1 cell line, read-out: Colorectal cancer, EC50 (μM) DLD-1): 0.677 µM
- EC50 ([2]; SW48 cell line, read-out: Colorectal cancer, EC50 (μM) SW48): 0.153 µM
- EC50 [2, 21]: 0.796 µM
- EC50 [3, 22]: 1.05 µM
- EC50 [3, 23]: 0.873 µM
- EC50 [3, 24]: 1.88 µM
- EC50 [3, 25]: 0.569 µM
- EC50 (MDA-MB-231-Luc): 1220 nM
- EC50 (ZR-75-1): 1440 nM
- EC50 (MCF7): 1900 nM
- EC50 (BT-549): 1030 nM
- EC50 (HCC1599): 2300 nM
- EC50 (DU4475): 540 nM
- EC50 (CAMA1): 1410 nM
- EC50 (T47D): 7190 nM
- EC50 [4, 26]: 772 nM
- EC50 [4, 27]: 907 nM
- EC50 [4, 28]: 532 nM
- EC50 [4, 29]: 1190 nM
- EC50 [4, 30]: 728 nM
- EC50 [5, 31]: 167 nM
- EC50 [5, 32]: 6400 nM
- EC50 [5, 33]: 1560 nM
- EC50 [6, 34]: 0.841 µM
- EC50 [6, 35]: 1.29 µM
- EC50 [6, 36]: 0.697 µM
- EC50 [6, 37]: 0.33 µM
- EC50 (CLK3): 21.4 nM
- EC50 [7, 38]: 1230 nM
- EC50 [7, 39]: 1030 nM
- EC50 [7, 40]: 937 nM
- EC50 [7, 41]: 296 nM
- EC50 [7, 42]: 2110 nM
- EC50 [7, 43]: 808 nM
- EC50 [7, 44]: 547 nM
Structure (SMILES): CN1CCC(Sc2ccc3cnc(NC(=O)c4ccnc(SC5CCN(C)CC5)c4)cc3c2)CC1 [Compound 88]
- EC50 (all 50 cell lines): 1150 nM

- EC50 (CLK2): 1.7 nM
- EC50 [1, 8]: 0.186 µM
- EC50 [1, 9]: 0.071 µM
- EC50 [1, 10]: 0.812 µM
- EC50 [1, 11]: 0.138 µM
- EC50 [1, 12]: 0.488 µM
- EC50 [1, 13]: 0.175 µM
- EC50 [1, 14]: 0.624 µM
- EC50 [1, 15]: 0.14 µM
- EC50 [1, 16]: 0.275 µM
- EC50 [1, 17]: 0.217 µM
- EC50 [1, 18]: 0.383 µM
- EC50 [1, 19]: 0.92 µM
- EC50 [1, 20]: 0.269 µM
- EC50 [2, 21]: 0.123 µM
- EC50 [3, 22]: 0.2 µM
- EC50 [3, 23]: 0.155 µM
- EC50 [3, 24]: 0.179 µM
- EC50 [3, 25]: 0.127 µM
- EC50 (MDA-MB-231-Luc): 451 nM
- EC50 (ZR-75-1): 211 nM
- EC50 (MCF7): 633 nM
- EC50 (BT-549): 228 nM
- EC50 (HCC1599): 262 nM
- EC50 (DU4475): 121 nM
- EC50 (CAMA1): 473 nM
- EC50 (T47D): 465 nM
- EC50 [4, 26]: 543 nM
- EC50 [4, 27]: 294 nM
- EC50 [4, 28]: 379 nM
- EC50 [4, 29]: 636 nM
- EC50 [4, 30]: 616 nM
- EC50 [5, 31]: 59 nM
- EC50 [5, 32]: 402 nM
- EC50 [5, 33]: 1490 nM
- EC50 [6, 34]: 0.243 µM
- EC50 [6, 35]: 0.725 µM
- EC50 [6, 36]: 0.759 µM
- EC50 [6, 37]: 0.396 µM
- EC50 (CLK3): 482 nM
- EC50 [7, 38]: 365 nM
- EC50 [7, 39]: 498 nM
- EC50 [7, 40]: 361 nM
- EC50 [7, 41]: 157 nM
- EC50 [7, 42]: 427 nM
- EC50 [7, 43]: 815 nM
- EC50 [7, 44]: 403 nM
Structure (SMILES): Cc1n[nH]c2ccc(-c3cncc(N[C@H]4CC[C@@H](N)CC4)n3)cc12 [Compound 64]
- EC50 (all 50 cell lines): 398 nM
